# “Also recorded” adds a separate entry of the source.
# Columns and labels:
# HUVECs and platelets = assay: Platelet adhesion and dynamics on TNF-α stimulated endothelium (living or fixed), whole blood perfusion; assay type: cell-based, human; settings: for platelet aggregation pattern / Aggregation Index (AI) / translocation and embolization of thrombi / Embolization Index (EI): HUVEC, TNF-α 0, 5, 100 ng/ml
# Protocol: 500 microliters (“μL”) of whole blood are pipetted into a fluid reservoir fitted to one end of a microchannel. Platelets are labeled with human CD41-PE antibody (e.g., 10 μL/mL from Invitrogen) that is directly added to the blood samples and incubated at room temperature for 10 minutes. Fluorescently labeled fibrinogen (e.g., 10 μg/mL from Life Sciences) is added, if required. Blood is pulled through the device (e.g., 30 μL/min) via tubing at an outlet using a syringe pump (e.g., PHD Ultra™ CP, Harvard Apparatus), resulting in an arterial shear rate of 750 s^−1. After two minutes, blood is supplemented with 100 millimolars (“mM”) calcium (“CaCl2”) and 75 mM magnesium (“MgCl2”) to support coagulation-activated blood clotting (e.g., 100 μL/mL).
# Platelets are visualized using time-lapse fluorescence imaging (e.g., 20×, NA 0.4). A time series of a 10-frame panorama (e.g., 6 mm long×0.665 mm wide region of a microchannel), at a lapse of every 30 seconds is recorded. The resulting image stack is maximum intensity projected along time, thresholded, segmented, and cropped to a central 200 microns (“μm”) of the channel width for analysis. Finally, platelet coverage is computed from the binary image as the ratio of bright pixels to the total number of pixels in the image.
# (§1) Multiple endothelial adhesion molecules are involved in the recruitment of blood cells and platelets in thrombosis in vivo. In previous studies, treatment of a living endothelium cultured in microfluidic channels with TNF-α results in an increase in expression of surface adhesion molecules, such as ICAM-1 and VCAM-1 within four hours after addition. To explore whether a fixed endothelium retains expression of these and other surface molecules that could potentially exacerbate thrombosis, the endothelium is first activated in the device by adding increasing doses of TNF-α, e.g., 0, 5, and 100 nanograms/millliter (“ng/ml”), for approximately 18 hours. The endothelium cells are fixed with 4% paraformaldehyde in phosphate-buffered saline (“PBS”) for 15 minutes at room temperature, are rinsed three times with PBS, and, then, stored in PBS at 4° C. in a humid environment.
# To explore whether the fixed endothelium in the microfluidic devices retains the ability to promote hemostasis, recalcified citrated whole blood (coagulation activated) is immediately perfused through a microfluidic channel lined by the fixed endothelium and preserved for 24-36 hours. Platelet adhesion is analyzed for 15 minutes of flow.
# Specifically, the analysis includes a method to quantitate platelet function in flow chambers and microfluidic devices that has been primarily limited to analyzing platelet adhesion on bare collagen surfaces. To analyze platelet-endothelial dynamics that will act as a robust readout of physiologically-relevant clotting, an automated imaging program creates an image time-series, K(x, y, t), containing a 10-frame panorama in space. Images are acquired at a frame rate of 2 panoramic images per minute, for a total time of 15 minutes. A non-dimensional stochastic index is derived to quantitate platelet endothelial dynamics (“P-E”), which is the interpercentile range of a coefficient of variance of the image time-series: P-E=range(CV(K(x,y,t) (1) A feature of this analytical readout is that instead of an “ensemble averaging,” the method incorporates the cell-surface interactions at the pixel level and quantitates statistical “dispersion” of interactions.
# When the device is perfused with whole blood, thrombi that are rich in platelets and fibrin form on the surface (FIG. 65C). The spatiotemporal dynamics of fluorescent platelet activity during formation of these thrombi on the endothelial surface was analyzed by time-lapse imaging. As flow was stable for at least 15 min, all experiments were carried out within the first 15 minutes. In some embodiments, blood might begin to clot in the tubing connected to the chip at later times (leading to decreased perfusion rates). […]
# HUVECs = assay: Immunostaining of TNF-α stimulated endothelium in microchannel; assay type: cell-based, human
# Protocol: The microfluidic devices are left overnight at 37° C. in a 5% carbon dioxide (“CO2”) incubator, after which they are rinsed with Endothelial Growth Medium-2 (“EGM-2”) from Lonza. Human Umbilical Vein Endothelial Cells (“HUVEC”) from a mixed donor, by Lonza, are kept in culture and suspended at 12.5 million cells/milliliter (“mL”) in EGM-2, after confluence. The suspension is introduced into the collagen-coated microchannels, after which the microfluidic devices are incubated upside down for 20 minutes. A fresh HUVEC suspension is then introduced in the microchannels, after which the microfluidic devices are incubated for eight hours to promote cell attachment across the channel. The microchannels are, then, rinsed with EGM-2, sometimes containing a freshly prepared solution of tumor necrosis factor (“TNF-α”), which is a recombinant from E. coli from Sigma. Antibodies against intercellular adhesion molecule-1 (“ICAM-1”) and vascular adhesion molecule-1 (“VCAM-1”), tissue factor (from Santa Cruz), VWF (from Abcam) and VE-Cadherin (from Santa Cruz) were perfused into the microfluidic devices after fixing the endothelium with 2% paraformaldehyde for ten minutes, incubating the endothelium for three hours, and counterstaining with a secondary fluorescent IgG antibody for three hours.
# as §1
# Human umbilical vein endothelial cells (HUVECs, Lonza) were cultured in Endothelial Growth Medium-2 (EGM-2, Lonza) and used between passages 3 and 7. Before seeding HUVECs in the devices, the microchannels were pre-treated with 1% (3-aminopropyl)-trimethoxysilane in phosphate-buffered saline (PBS) for 10 min, flushed sequentially with 70% ethanol in water and 100% ethanol, and then incubated at 80° C. for two hours before rat tail collagen I (100 μg/ml in PBS; BD Biosciences) was introduced in the channels. Some of the devices were used with the collagen coating alone (without cells) after incubation overnight at 37° C. and flushing of the channels with EGM-2. In other studies for comparison, HUVECs (12.5×10^6 cells/ml) were introduced into the collagen-coated channels and incubated for 20 min at 37° C. to promote cell attachment before a second similar HUVEC suspension was then introduced and the devices were incubated upside down for an additional 20 min to seed the cells on the ceiling and walls of the microfluidic channels. Channels were then flushed with EGM-2 and the devices were incubated at 37° C. under 5% CO2 for 24 hours to promote HUVEC monolayer formation on all exposed surfaces of the microchannel. In some cases, the medium was supplemented with one or more inflammatory cytokines (e.g., 5 or 100 ng/ml TNF-α (Sigma)) to activate the HUVEC monolayer. Fluorescence microscopy was performed on endothelium that was fixed with 4% formaldehyde (Sigma) and stained with antibodies against TF (Santa Cruz), vWF (Abeam), VE-Cadherin (Santa Cruz), followed by counterstaining with phalloidin and DAPI (Invitrogen).
# [1] = TNF-α before fixation, versus untreated
substance,measurement,setting,value
tumor necrosis factor-α [TNF-α],platelet aggregation pattern / Aggregation Index (AI),HUVECs and platelets,heterogeneous and fluctuated in a dose-dependent manner; also recorded: varied depending on the dose of TNF-α
same,translocation and embolization of thrombi / Embolization Index (EI),HUVECs and platelets,great variation in the fluorescent signal over time and space; also recorded: increased with increasing doses
same,platelet aggregation pattern / Aggregation Index (AI),HUVECs and platelets; listed as TNFα,rise of AI with increasing TNFα dose
same,translocation and embolization of thrombi / Embolization Index (EI),HUVECs and platelets; listed as TNFα,increased in a TNFα dose-dependent manner
same,area-averaged platelet adhesion rate on living HUVECs,HUVECs and platelets; TNF-α stimulated HUVECs (TNF+; TNF++) versus unstimulated,increase in platelet adhesion
same,"platelet dynamics (TPD, SPD) on fixed HUVECs","HUVECs and platelets; TNF-α treated and fixed, versus fixed collagen or untreated fixed endothelium",elevated
same,platelet coverage on fixed endothelium,HUVECs and platelets; endothelium treated with increasing doses of TNF-α prior to fixation,increases in a TNF-α dose-dependent manner; also recorded: dose-dependent increase in platelet surface adhesion; also recorded: dose-dependent increase in surface coverage of platelet-rich thrombi
same,platelet-endothelial dynamics (P-E; spatial and temporal dispersion),HUVECs and platelets; living endothelium stimulated with TNF-α,increase in a TNF-α dose dependent manner; also recorded: significant fluctuations; also recorded: TNF-α dose-dependent increase in both the spatial and temporal dispersion
same,platelet coverage / adhesion on living endothelium,HUVECs and platelets; living endothelium stimulated with TNF-α before blood flow,increases in a TNF-α dose-dependent manner; also recorded: platelet adhesion again occurs; also recorded: platelet adhesion and aggregation again resulted
same,ICAM-1 expression on living endothelium,HUVECs; HUVECs stimulated with various doses of TNF-α,increased with increase in TNF concentration; also recorded: dose-dependent activation of ICAM-1; also recorded: dose-dependent surface expression of adhesion molecule ICAM-1; also recorded: increased in a dose-dependent manner
same,tissue factor (TF) expression on living endothelium,"HUVECs; HUVECs, TNF-α 5 or 100 ng/ml",increase in the endothelial expression
same,von Willebrand Factor (vWF) expression on living endothelium,"HUVECs; HUVECs, TNF-α 5 or 100 ng/ml",increase in the endothelial expression
same,VCAM-1 immunofluorescence on fixed endothelium,"HUVECs; TNF-α 0, 5, 100 ng/ml for about 18 hours before fixation",dose-dependent increase
same,ICAM-1 immunofluorescence on fixed endothelium,"HUVECs; TNF-α 0, 5, 100 ng/ml for about 18 hours before fixation, normalized to untreated",dose-dependent increase
same,VWF immunofluorescence on fixed endothelium,HUVECs; [1],dose-dependent increase; also recorded: higher levels
same,tissue factor immunofluorescence on fixed endothelium,HUVECs; [1],dose-dependent increase; also recorded: higher levels

# Source: patent publication US10732172B1, “Methods, systems, and compositions for determining blood clot formation, and uses thereof” (President and Fellows of Harvard College, priority 2015, dated 2020)
